Test results taken from patent US8030446B2, “Mutant proline-and-arginine rich peptides and methods for using the same” (Trustees of Dartmouth College, priority 2006, dated 2011).
Where “and” joins values, the source holds several entries; their conditions need not be identical. Equal entries are not always repeated. Where two headings read alike, the source gives them in different places. Marks after values point to notes of the source that are not given here. Ends that are not written are not given here.

Legend:
[1] = target: T1, Mammalian (Human) 20s Proteasome (Homo sapiens, UniProt P25788); experiment: Chymotrypsin-like (ChT-L) peptidase activity of 20S proteasome, N-succinyl-LLVY-AMC substrate; format: biochemical; settings: for IC50: 15-minute pre-incubation, 1 hour at 37° C., pH 7.5, 0.03% SDS
T1 construct: purchased Boston Biochem (Cambridge, Mass.)
Experimental: Determination of Enzymatic Activity. Mammalian (Human) 20s Proteasome was purchased from Boston Biochem (Cambridge, Mass.); substrate, N-succinyl-LLVY-AMC was purchased from SIGMA (St. Louis, Mo.); and negative control, Lactacystin, was purchased from SIGMA. […] Activity was determined by measuring the amount of a fluorescence observed upon release of the MCA group after a 1 hour incubation at 37° C. in 50 mM sodium phosphate buffer at pH 7.5 containing 0.03% SDS. Inhibition by PR-peptide was measured after a 15-minute pre-incubation at 37° C. of each peptide with 20S proteasome, followed by the addition of the substrate and the one hour incubation.

[2] = test system: genes regulating the NF-κB pathway in human umbilical vein endothelial cells (HUVEC); experiment: NF-κB pathway-specific gene expression microarray in HUVEC treated with PR peptides; format: cell-based; settings: for overall inhibitory effect on NF-κB pathway-related gene expression (in words): FIG. 1, averaged % inhibition over 13 down-regulated genes, relative to PR11; for AKT1 gene expression / ATF2 gene expression / CREB1 gene expression / ELK3 gene expression / JNK1 gene expression / MEK4 gene expression / MEKK1 gene expression / MEKK2 gene expression / NF-κB1 gene expression / NF-κB2 gene expression / P38 MAPK gene expression / RANK gene expression / RIP gene expression / TAK1 gene expression / TBK1 gene expression / TRAF6 gene expression: PR peptides 1 μM, 8 hours, relative to untreated controls; for number of significantly reduced genes: of the 13 down-regulated genes of Tables 5 and 6
Experimental: Cell Culture. Human umbilical vein endothelial cells (HUVEC, Cambrex Bio Science Walkersville, Inc., East Rutherford, N.J.) were cultured in endothelial cell basal medium-2 supplemented with EGM-2 SINGLEQUOTS (Cambrex Bio Science Walkersville, Inc.) and FBS. Confluent HUVEC, passage 3-5, were starved overnight in medium supplemented with 0.5% FBS, 0.25% BSA and incubated with PR peptides (1 μM) for 8 hours in starvation medium.
Total RNA Extraction and Gene Profiling by Microarray. Total RNA extraction was performed using the RNEASY mini kit protocol (QIAGEN, Valencia, Calif.). The quality and quantity of total RNA was determined using RNA 6000 Nano chips (Agilent Technology, Santa Clara, Calif.).
Gene profiling was performed using pathway-specific gene expression array for NF-κB signaling transduction (HS-016.2, SuperArray Bioscience Corp.). A total of 96 cDNA fragments from genes related to NF-κB mediated signal transduction, including: NF-κB/IκB family, NF-κB responsive genes (adhesion molecules, cytokines), extracellular ligands, transmembrane receptors, adaptor proteins, signal transduction kinases, and transcription factors were printed in tetraspot format on 3.8×4.8 cm nylon array membrane. Total RNA (0.5 μg) was reverse-transcribed into cDNA labeled with biotin-dUTP according to the manufacture's protocol. After overnight hybridization at 60° C., array membranes were treated with alkaline phosphate-conjugated streptavidin followed by chemiluminescent alkaline phosphate substrate CDP-star (Applied Biosystems, Foster City, Calif.) and exposed to X-ray film. The data were extracted from raw images using […] software (SuperArray, Bioscience Corp.). After background subtraction, the level of gene expression was determined as signal intensity units relative to total array intensity signal. Statistical significant altered genes (PR peptides vs. control) at P values <0.05 were analyzed by Student's t-test, 2-tailed distribution. The data were expressed as fold change PR peptides relative to controls (untreated cells kept in similar conditions).

[3] = chymotrypsin-like activity, read-out: I50

| Substance | IC50 [1, 3] | overall inhibitory effect on NF-κB pathway-related gene expression (in words) [2] | AKT1 gene expression ([2]; HUVEC) | ATF2 gene expression ([2]; HUVEC) | CREB1 gene expression ([2]; HUVEC) | ELK3 gene expression ([2]; HUVEC) | JNK1 gene expression ([2]; HUVEC) | MEK4 gene expression ([2]; HUVEC) | MEKK1 gene expression ([2]; HUVEC) | MEKK2 gene expression ([2]; HUVEC) | NF-κB1 gene expression ([2]; HUVEC) | NF-κB2 gene expression ([2]; HUVEC) | P38 MAPK gene expression ([2]; HUVEC) | RANK gene expression ([2]; HUVEC) | RIP gene expression ([2]; HUVEC) | TAK1 gene expression ([2]; HUVEC) | TBK1 gene expression ([2]; HUVEC) | TRAF6 gene expression ([2]; HUVEC) | other results |
| --- | --- | --- | --- | --- | --- | --- | --- | --- | --- | --- | --- | --- | --- | --- | --- | --- | --- | --- | --- |
| AAAPRPPYLPR [AAA, reference compound] | – | – | – | – | – | – | – | – | – | – | – | – | – | – | – | – | – | – | IC50 ([1]; I50, chymotrypsin-like activity): > 100000 nM |
| RAAPRPPYLPR [RAA] | 20100 nM | – | – | – | – | – | – | – | – | – | – | – | – | – | – | – | – | – | – |
| RRKPRPPYLPR [Peptide K3] | 819 nM | not significantly different than PR11 | 1.7 fold change | −1.6* fold change | −1.6 fold change | 1.4^# fold change | −3.2* fold change | −3.1* fold change | −3.2 fold change | −1.9^# fold change | −2.2 fold change | −1.2 fold change | −1.7* fold change | 1.7* fold change | −2.4* fold change | −3.1^# fold change | −1.8* fold change | −1.7 fold change | number of significantly reduced genes ([2]; HUVEC): 8 genes |
| RRRPRPPELPR [Peptide E8] | 2370 nM | reduced activity compared with PR11 or Trp12 | 0.8 fold change | −1.6* fold change | −1.9 fold change | ^−1.8^# fold change | −1.2 fold change | −1.2 fold change | −1.0 fold change | −1.3 fold change | −1.7 fold change | −1.4 fold change | −1.5 fold change | 1.5 fold change | −3.6* fold change | −1.7* fold change | −2.3^# fold change | −1.2 fold change | – |
| RRRPRPPYLPA [Peptide A11] | 685 nM | – | – | – | – | – | – | – | – | – | – | – | – | – | – | – | – | – | – |
| RRRPRPPELPRW [Peptide E8W12] | 2610 nM | reduced activity compared with PR11 or Trp12 | 1.8* fold change | −1.8* fold change | −1.5 fold change | 1.0 fold change | −1.8 fold change | −2.4* fold change | −1.7 fold change | −1.1 fold change | −1.6 fold change | −1.3 fold change | −1.1 fold change | 1.8^# fold change | −1.5 fold change | −1.2 fold change | −1.6* fold change | −1.2 fold change | 20S proteasome inhibiting activity (in words) ([1]; chymotrypsin-like activity): behaved much the same as the Glu8 mutant |
| ARRPRPPELPR [Peptide A1E8] | 49400 nM | reduced activity compared with PR11 or Trp12 | 0.8 fold change | −1.5* fold change | −2.2* fold change | ^−1.9^# fold change | −1.5 fold change | −1.2 fold change | −0.8 fold change | −1.2 fold change | −1.6 fold change | −3.5* fold change | −1.6 fold change | 1.3 fold change | −10.4^# fold change | −1.8 fold change | −2.0^# fold change | −1.6 fold change | – |
| RRRPRPAYLPR [Peptide A7] | 851 nM | – | – | – | – | – | – | – | – | – | – | – | – | – | – | – | – | – | – |
| RRAPRPPYLPR [Peptide A3] | 3150 nM | more active than A1-PR11 and A2-PR11 | 1.7 fold change | −1.3 fold change | −1.3 fold change | 1.3* fold change | −2.6 fold change | −2.7* fold change | −1.9 fold change | −2.1* fold change | −2.0 fold change | −1.4 fold change | −1.9* fold change | 1.7* fold change | −3.0* fold change | −3.3* fold change | −2.1* fold change | −1.4 fold change | number of significantly reduced genes ([2]; HUVEC): 5 genes |
| RRRPRAPYLPR [Peptide A6] | 1220 nM | – | – | – | – | – | – | – | – | – | – | – | – | – | – | – | – | – | – |
| AARPRPPYLPR [AAR] | 14500 nM | – | – | – | – | – | – | – | – | – | – | – | – | – | – | – | – | – | – |
| RRRPRPPYLPR [PR11, reference compound] | 805 nM | – | 3.0* fold change | −2.1* fold change | −2.1* fold change | 1.9* fold change | −6.5^# fold change | −3.1* fold change | −2.9* fold change | −2.6* fold change | −4.1* fold change | −3.3^# fold change | −3.6^# fold change | 1.5* fold change | −10.4^# fold change | −9.2^# fold change | −2.8^# fold change | −2.4* fold change | number of genes whose expression was significantly affected ([2]; HUVEC, NF-κB array of 96 genes): 16 genes |
| RKRPRPPYLPR [Peptide K2] | 543 nM | not significantly different than PR11 | 1.6 fold change | −2.0^# fold change | −2.6 fold change | 1.5* fold change | −3.1 fold change | −9.3^# fold change | −5.3* fold change | −1.7 fold change | −2.1 fold change | −1.5 fold change | −1.4 fold change | 1.1 fold change | −2.8* fold change | −2.1* fold change | −4.6^# fold change | −2.5 fold change | number of significantly reduced genes ([2]; HUVEC): 6 genes |
| RRRPRPPYLAR [Peptide A10] | 782 nM | – | – | – | – | – | – | – | – | – | – | – | – | – | – | – | – | – | – |
| KRRPRPPELPR [Peptide K1E8] | 6340 nM | higher than that of Glu8 or Ala1Glu8 | 0.6 fold change | −2.6^# fold change | −5.0^# fold change | ^−1.9^# fold change | −2.2 fold change | −1.9* fold change | −1.4 fold change | −3.0^# fold change | −1.9 fold change | −2.3* fold change | −2.6^# fold change | 0.7 fold change | −3.3* fold change | −2.4^# fold change | −3.6^# fold change | −5.5* fold change | – |
| RRRPAPPYLPR [Peptide A5] | 2650 nM | – | – | – | – | – | – | – | – | – | – | – | – | – | – | – | – | – | – |
| RRRPRPPYGPR [Peptide G9] | 137 nM | – | – | – | – | – | – | – | – | – | – | – | – | – | – | – | – | – | 20S proteasome inhibiting activity (in words) ([1]; chymotrypsin-like activity): fully active |
| RRRARPPYLPR [Peptide A4] | 5000 nM and 4990 nM | – | – | – | – | – | – | – | – | – | – | – | – | – | – | – | – | – | – |
| ARAPRPPYLPR [ARA] | 11300 nM | – | – | – | – | – | – | – | – | – | – | – | – | – | – | – | – | – | – |
| H-RRRPRPPYLPRPRPPPFFPPRLPPRIPPGFPPRFPPRFP-OH [PR39, reference compound] | 4 nM | – | – | – | – | – | – | – | – | – | – | – | – | – | – | – | – | – | – |
